Measurements from paper PMC8472965, “BmK86-P1, a New Degradation Peptide with Desirable Thermostability and Kv1.2 Channel-Specific Activity from Traditional Chinese Scorpion Medicinal Material” (Toxins, 2021).
Positions of bridges follow the written chain, without caps; N, C: chain ends. Residues, ends and D or L forms follow the SMILES beside them.

Experiments:
Type in all cases: cell-based
hKv3.2 channel = molecular target: T1, hKv3.2 channel (Homo sapiens, UniProt Q96PR1); experiment: Whole-cell patch clamp, hKv3.2 channel overexpressed in HEK293T cells; details: 1 μM peptide, mean ± S.E., n ≥ 3, SEM
T1 construct: expressed in transfected cells; host or cells: HEK293T
T1 sequence (Q96PR1 1-638): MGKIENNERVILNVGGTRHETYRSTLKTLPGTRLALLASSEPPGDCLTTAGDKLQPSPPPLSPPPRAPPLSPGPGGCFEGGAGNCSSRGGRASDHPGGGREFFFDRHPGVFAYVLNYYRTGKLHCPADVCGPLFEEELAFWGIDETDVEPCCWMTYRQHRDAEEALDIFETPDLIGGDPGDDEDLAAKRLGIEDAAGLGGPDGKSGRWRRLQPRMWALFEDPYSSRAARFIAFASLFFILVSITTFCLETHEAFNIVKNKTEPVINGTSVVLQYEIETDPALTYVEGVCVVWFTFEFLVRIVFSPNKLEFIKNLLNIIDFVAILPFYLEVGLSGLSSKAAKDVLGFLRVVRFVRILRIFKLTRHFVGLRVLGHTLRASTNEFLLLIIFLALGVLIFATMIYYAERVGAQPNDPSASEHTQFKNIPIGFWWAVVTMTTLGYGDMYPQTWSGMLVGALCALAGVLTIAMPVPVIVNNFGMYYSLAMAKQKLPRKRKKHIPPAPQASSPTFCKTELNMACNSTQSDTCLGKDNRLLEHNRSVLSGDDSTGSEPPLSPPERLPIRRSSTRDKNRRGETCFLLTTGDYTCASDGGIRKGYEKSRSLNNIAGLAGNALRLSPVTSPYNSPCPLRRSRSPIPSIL
Experimental: (§1) To investigate the electrophysiological activities of BmK86-P1, the whole-cell patch clamp technique was applied to test the effects of BmK86-P1 on multiple potassium channels. The hKv1.1, hKv1.2, hKv1.3, hKv1.6, hKv3.2, mKv4.1, rKv4.2, rKv4.3 and hERG channels were overexpressed in HEK293T cells, then the inhibitory effects of BmK86-P1 at 1 μM on these potassium channels were measured. […] To further investigate the affinity of BmK86-P1 inhibiting the hKv1.2 channel, a dose-dependent study was performed by examining the inhibitory effects of different concentrations of BmK86-P1.
(§2) All potassium channel expression vectors were given by others or constructed by ourselves. HEK293T cells were cultured in Dulbecco’s modified Eagle medium (Gibco, Pittsburgh, PA, USA) with 10% fetal bovine serum and penicillin/streptomycin (100 units/mL) in a 5% CO2 incubator at 37 °C. […] The potassium currents were recorded after transfection for 1 to 3 days.
(§3) The channel currents were measured and recorded by whole-cell patch clamp technology according to previously published references. […] The channel currents were recorded at room temperature (~25 °C) using an EPC 10 patch clamp amplifier. […]
(§4) The ClampFit (Molecular Devices, Sunnyvale, CA, USA) and SigmaPlot software ([…], Chicago, IL, USA) were used to analyze the recorded data. […]

mKv4.1 channel = molecular target: T2, mKv4.1 channel (Mus musculus, UniProt Q03719); experiment: Whole-cell patch clamp, mKv4.1 channel overexpressed in HEK293T cells; details: 1 μM peptide, mean ± S.E., n ≥ 3, SEM
T2 construct: expressed in transfected cells; host or cells: HEK293T
T2 sequence (Q03719 1-651): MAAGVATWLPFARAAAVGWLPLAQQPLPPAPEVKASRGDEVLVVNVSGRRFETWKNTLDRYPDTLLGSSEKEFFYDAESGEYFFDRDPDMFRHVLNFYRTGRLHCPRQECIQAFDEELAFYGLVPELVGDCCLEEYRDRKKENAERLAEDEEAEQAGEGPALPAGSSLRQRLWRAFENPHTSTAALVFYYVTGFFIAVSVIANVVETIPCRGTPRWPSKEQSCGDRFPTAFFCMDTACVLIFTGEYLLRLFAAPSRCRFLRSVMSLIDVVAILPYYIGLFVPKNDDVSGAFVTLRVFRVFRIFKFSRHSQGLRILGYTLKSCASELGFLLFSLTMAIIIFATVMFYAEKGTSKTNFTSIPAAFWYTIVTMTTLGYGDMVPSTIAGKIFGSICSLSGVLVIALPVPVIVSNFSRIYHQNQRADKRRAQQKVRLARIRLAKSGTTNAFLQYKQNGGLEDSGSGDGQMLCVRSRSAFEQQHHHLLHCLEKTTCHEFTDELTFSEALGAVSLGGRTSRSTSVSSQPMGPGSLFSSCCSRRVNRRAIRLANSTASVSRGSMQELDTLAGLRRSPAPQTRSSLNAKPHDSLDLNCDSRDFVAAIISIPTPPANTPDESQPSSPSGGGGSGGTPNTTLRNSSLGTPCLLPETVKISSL
Experimental: as §1, §2, §3, §4

hKv1.3 channel = molecular target: T3, hKv1.3 channel (Homo sapiens, UniProt P22001); experiment: Whole-cell patch clamp, hKv1.3 channel overexpressed in HEK293T cells; details: 1 μM peptide, room temperature (~25 °C), mean ± S.E., n ≥ 3, SEM
T3 construct: expressed in transfected cells; host or cells: HEK293T
Experimental: as §1, §2, §3, §4

T3 sequence (P22001 whole entry): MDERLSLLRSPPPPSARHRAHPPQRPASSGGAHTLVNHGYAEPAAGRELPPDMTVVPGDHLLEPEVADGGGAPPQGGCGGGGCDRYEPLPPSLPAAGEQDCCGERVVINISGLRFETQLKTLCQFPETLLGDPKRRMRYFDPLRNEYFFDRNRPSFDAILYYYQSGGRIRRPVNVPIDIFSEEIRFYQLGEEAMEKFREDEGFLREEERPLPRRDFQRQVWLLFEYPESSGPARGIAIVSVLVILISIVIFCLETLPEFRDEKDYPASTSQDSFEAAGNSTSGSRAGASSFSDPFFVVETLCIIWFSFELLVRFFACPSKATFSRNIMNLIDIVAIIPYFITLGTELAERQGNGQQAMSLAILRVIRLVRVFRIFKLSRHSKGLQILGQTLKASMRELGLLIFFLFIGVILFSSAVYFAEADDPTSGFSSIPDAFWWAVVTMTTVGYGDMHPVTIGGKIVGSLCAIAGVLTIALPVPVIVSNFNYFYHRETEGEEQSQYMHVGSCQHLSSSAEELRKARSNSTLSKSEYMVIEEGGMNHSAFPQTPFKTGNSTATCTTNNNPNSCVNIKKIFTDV

## CC[C@H](C)[C@@H]1NC(=O)[C@@H]2CSSC[C@H](NC(=O)[C@H](C)N)C(=O)N[C@@H](CO)C(=O)N[C@@H](CCCCN)C(=O)N3CCC[C@H]3C(=O)N[C@H]3CSSC[C@H](NC(=O)[C@H](CCCNC(=N)N)NC(=O)CNC(=O)[C@H](CC(N)=O)NC1=O)C(=O)N[C@@H](Cc1c[nH]cn1)C(=O)N[C@H](C(=O)N[C@@H](Cc1ccc(O)cc1)C(=O)N[C@@H](Cc1ccc(O)cc1)C(=O)O)CSSC[C@H](NC(=O)[C@H](Cc1ccc(O)cc1)NC(=O)[C@H](CCCCN)NC(=O)[C@H](CCCNC(=N)N)NC3=O)C(=O)N[C@@H]([C@@H](C)CC)C(=O)N[C@@H](CC(=O)O)C(=O)N[C@@H](CCCCN)C(=O)NCC(=O)N[C@@H](C)C(=O)N[C@@H](CCCNC(=N)N)C(=O)N[C@@H](CC(N)=O)C(=O)NCC(=O)N[C@@H](CCCCN)C(=O)N2 [BmK86-P1] (H-ACSKPCRKYCIDKGARNGKCINGRCHCYY-OH; disulfide 2-20, 6-25, 10-27 (inferred); N-terminus and C-terminus assumed)
hKv3.2 channel
  inhibition of hKv3.2 channel currents: 3.8 ± 0.7%
mKv4.1 channel
  inhibition of Kv4.1 channel currents: 3.4 ± 1.1%
hKv1.3 channel
  inhibition of hKv1.3 channel currents: 52.1 ± 3.1%
